Source: patent US8247211B2, “Glycopeptide antibiotics” (American Cyanamid Company, priority 2001, dated 2012)
Values after ≈ are worked out from the molar mass of the structure shown.

What was measured:
Assay in all cases: In vitro antibacterial evaluation: minimum inhibitory concentration (MIC), broth dilution method
Type in all cases: cell-based
[1] = test system: Enterococcus sp.; conditions: 18 hours at 35° C.
Method in brief: (§1)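 Following NCCLS approved standard M7-A2, compounds are serially diluted from 64 to 0.06 μg/mL in Muller-Hinton II […] and inoculated at 5×10^5 CFU/mL; the MIC is the minimum concentration at which growth is inhibited.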

[2] = test system: Escherichia coli; conditions: 18 hours at 35° C.
Method in brief: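 Broth dilution per NCCLS M7-A2 in Muller-Hinton II […], inoculum 5×10^5 CFU/mL, antibiotic tested over 64-0.06 μg/mL. MIC is taken as the lowest concentration that inhibits growth. Panel includes recent clinical isolates resistant to methicillin, penicillin and/or vancomycin.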

[3] = test system: Staphylococcus sp.; conditions: for MIC Staphylococcus aureus (ATCC 29213): strain ATCC 29213; for MIC Staphylococcus aureus (GC 1131): strain GC 1131; for MIC Staphylococcus aureus (GC 3051): strain GC 3051; for MIC Staphylococcus aureus (GC 3053): strain GC 3053; for MIC Staphylococcus aureus (GC 4541): strain GC 4541; for MIC Staphylococcus aureus (GC 4542): strain GC 4542; for MIC Staphylococcus aureus-SMITH (GC 4543): strain GC 4543; for MIC Staphylococcus aureus (GC 4544): strain GC 4544; for MIC Staphylococcus aureus (GC 4545): strain GC 4545; for MIC Staphylococcus haemolyticus (GC 4546): strain GC 4546; for MIC Coagulase Negative Staphylococcus (GC 4547): strain GC 4547; for MIC Coagulase Negative Staphylococcus (GC 4548): strain GC 4548; for MIC Coagulase Negative Staphylococcus (GC 4549): strain GC 4549; for MIC Coagulase Negative Staphylococcus (GC 4551): strain GC 4551; for MIC Coagulase Negative Staphylococcus (GC 6257): strain GC 6257
Method in brief: as §1

[4] = test system: Streptococcus sp.; conditions: 18 hours at 35° C.
Method in brief: as §1

[5] = Enterococcus faecalis (ATCC 29212)
[6] = Enterococcus faecalis (GC 2242)
[7] = Enterococcus faecalis (GC 2691)
[8] = Enterococcus faecalis (GC 3059)
[9] = Enterococcus faecalis (GC 4552)
[10] = Enterococcus faecalis (GC 4553)
[11] = Enterococcus faecalis (GC 4554)
[12] = Enterococcus faecalis (GC 6189)
[13] = broth dilution, inoculum 5×10^5 CFU/mL
[14] = Streptococcus agalactiae (GC 4564)
[15] = Streptococcus pneumoniae (ATCC 6301)
[16] = Streptococcus pneumoniae (GC 1894)
[17] = Streptococcus pneumoniae (GC 4565)
[18] = Streptococcus pyogenes (GC 4563)

Compound: CCCC(C)C1OCC2OC(OC3C(CO)OC(Oc4ccc(CC5NC(=O)C(C(C)c6ccc(Cl)cc6)NC(=O)CNC(=O)C(CO)NC(=O)C(C(O)C6CNC(=N)N6C6OC(CO)C(O)C(O)C6O)NC(=O)C(C(O)C6CNC(=N)N6)NC5=O)cc4)C(O)C3O)C(O)C(O)C2O1 (stereo not drawn) [Example 194, Cyclo[glycyl-4-chloro-β-methylphenylalanyl-O-[4-O-[4,6-O-(2-methylpentylidene)hexopyranosyl]hexopyranosyl]tyrosyl-3-(2-iminoimidazolidin-4-yl)seryl-3-(3-hexopyranosyl-2-iminoimidazolidin-4-yl)serylseryl]]
- MIC Enterococcus avium (GC 4558) ([1]; Enterococcus avium (GC 4558)): 2 µg/mL (≈ 1.42 µM)
- MIC Enterococcus faecalis (ATCC 29212) [1, 5]: 2 µg/mL (≈ 1.42 µM)
- MIC Enterococcus faecalis (GC 2242) [1, 6]: 1 µg/mL (≈ 0.708 µM)
- MIC Enterococcus faecalis (GC 2691) [1, 7]: 2 µg/mL (≈ 1.42 µM)
- MIC Enterococcus faecalis (GC 3059) [1, 8]: 1 µg/mL (≈ 0.708 µM)
- MIC Enterococcus faecalis (GC 4552) [1, 9]: 1 µg/mL (≈ 0.708 µM)
- MIC Enterococcus faecalis (GC 4553) [1, 10]: 2 µg/mL (≈ 1.42 µM)
- MIC Enterococcus faecalis (GC 4554) [1, 11]: 1 µg/mL (≈ 0.708 µM)
- MIC Enterococcus faecalis (GC 6189) [1, 12]: 0.5 µg/mL (≈ 0.354 µM)
- MIC Enterococcus faecium (GC 2243) ([1]; Enterococcus faecium (GC 2243)): 1 µg/mL (≈ 0.708 µM)
- MIC Enterococcus faecium (GC 4556) ([1]; Enterococcus faecium (GC 4556)): 1 µg/mL (≈ 0.708 µM)
- MIC Enterococcus faecium (GC 4557) ([1]; Enterococcus faecium (GC 4557)): 2 µg/mL (≈ 1.42 µM)
- MIC Enterococcus avium (GC 4558) [1, 13]: 2 µg/mL (≈ 1.42 µM)
- MIC Enterococcus faecalis (ATCC 29212) [1, 13]: 2 µg/mL (≈ 1.42 µM)
- MIC Enterococcus faecalis (GC 2242) [1, 13]: 1 µg/mL (≈ 0.708 µM)
- MIC Enterococcus faecalis (GC 2691) [1, 13]: 2 µg/mL (≈ 1.42 µM)
- MIC Enterococcus faecalis (GC 3059) [1, 13]: 1 µg/mL (≈ 0.708 µM)
- MIC Enterococcus faecalis (GC 4552) [1, 13]: 1 µg/mL (≈ 0.708 µM)
- MIC Enterococcus faecalis (GC 4553) [1, 13]: 2 µg/mL (≈ 1.42 µM)
- MIC Enterococcus faecalis (GC 4554) [1, 13]: 1 µg/mL (≈ 0.708 µM)
- MIC Enterococcus faecalis (GC 6189) [1, 13]: 0.5 µg/mL (≈ 0.354 µM)
- MIC Enterococcus faecium (GC 2243) [1, 13]: 1 µg/mL (≈ 0.708 µM)
- MIC Enterococcus faecium (GC 4556) [1, 13]: 1 µg/mL (≈ 0.708 µM)
- MIC Enterococcus faecium (GC 4557) [1, 13]: 2 µg/mL (≈ 1.42 µM)
- MIC Escherichia coli (GC 4559) [2]: 32 µg/mL (≈ 22.7 µM)
- MIC Escherichia coli (GC 4560) [2]: 2 µg/mL (≈ 1.42 µM)
- MIC Staphylococcus aureus (ATCC 29213) [3]: 0.5 µg/mL (≈ 0.354 µM)
- MIC Staphylococcus aureus (GC 1131) [3]: 1 µg/mL (≈ 0.708 µM)
- MIC Staphylococcus aureus (GC 3051) [3]: 1 µg/mL (≈ 0.708 µM)
- MIC Staphylococcus aureus (GC 3053) [3]: 1 µg/mL (≈ 0.708 µM)
- MIC Staphylococcus aureus (GC 4541) [3]: 0.5 µg/mL (≈ 0.354 µM)
- MIC Staphylococcus aureus (GC 4542) [3]: 0.5 µg/mL (≈ 0.354 µM)
- MIC Staphylococcus aureus-SMITH (GC 4543) [3]: 0.5 µg/mL (≈ 0.354 µM)
- MIC Staphylococcus aureus (GC 4544) [3]: 2 µg/mL (≈ 1.42 µM)
- MIC Staphylococcus aureus (GC 4545) [3]: 1 µg/mL (≈ 0.708 µM)
- MIC Staphylococcus haemolyticus (GC 4546) [3]: 0.5 µg/mL (≈ 0.354 µM)
- MIC Coagulase Negative Staphylococcus (GC 4547) [3]: 1 µg/mL (≈ 0.708 µM)
- MIC Coagulase Negative Staphylococcus (GC 4548) [3]: 0.5 µg/mL (≈ 0.354 µM)
- MIC Coagulase Negative Staphylococcus (GC 4549) [3]: 0.5 µg/mL (≈ 0.354 µM)
- MIC Coagulase Negative Staphylococcus (GC 4551) [3]: 1 µg/mL (≈ 0.708 µM)
- MIC Coagulase Negative Staphylococcus (GC 6257) [3]: 0.5 µg/mL (≈ 0.354 µM)
- MIC Streptococcus agalactiae (GC 4564) [4, 14]: <0.06 µg/mL
- MIC Streptococcus pneumoniae (ATCC 6301) [4, 15]: 0.25 µg/mL (≈ 0.177 µM)
- MIC Streptococcus pneumoniae (GC 1894) [4, 16]: 0.12 µg/mL (≈ 0.085 µM)
- MIC Streptococcus pneumoniae (GC 4565) [4, 17]: <0.06 µg/mL
- MIC Streptococcus pyogenes (GC 4563) [4, 18]: <0.06 µg/mL
- MIC Streptococcus agalactiae (GC 4564) [4, 13]: <0.06 µg/mL
- MIC Streptococcus pneumoniae (ATCC 6301) [4, 13]: 0.25 µg/mL (≈ 0.177 µM)
- MIC Streptococcus pneumoniae (GC 1894) [4, 13]: 0.12 µg/mL (≈ 0.085 µM)
- MIC Streptococcus pneumoniae (GC 4565) [4, 13]: <0.06 µg/mL
- MIC Streptococcus pyogenes (GC 4563) [4, 13]: <0.06 µg/mL

Compound: CC(c1ccccc1)C1NC(=O)CNC(=O)C(CO)NC(=O)C(C(O)C2CNC(=N)N2C2OC(CO)C(O)C(O)C2O)NC(=O)C(C(O)C2CNC(=N)N2)NC(=O)C(Cc2ccc(OC3OC(CO)C(OC4OC5COC6(CCCCCCCCCCCC6)OC5C(O)C4O)C(O)C3O)cc2)NC1=O (stereo not shown) [Example 210]
- MIC Enterococcus avium (GC 4558) ([1]; Enterococcus avium (GC 4558)): 16 µg/mL (≈ 10.9 µM)
- MIC Enterococcus faecalis (ATCC 29212) [1, 5]: 32 µg/mL (≈ 21.7 µM)
- MIC Enterococcus faecalis (GC 2242) [1, 6]: 16 µg/mL (≈ 10.9 µM)
- MIC Enterococcus faecalis (GC 2691) [1, 7]: 8 µg/mL (≈ 5.43 µM)
- MIC Enterococcus faecalis (GC 3059) [1, 8]: 32 µg/mL (≈ 21.7 µM)
- MIC Enterococcus faecalis (GC 4552) [1, 9]: 32 µg/mL (≈ 21.7 µM)
- MIC Enterococcus faecalis (GC 4553) [1, 10]: 16 µg/mL (≈ 10.9 µM)
- MIC Enterococcus faecalis (GC 4554) [1, 11]: 32 µg/mL (≈ 21.7 µM)
- MIC Enterococcus faecalis (GC 6189) [1, 12]: 16 µg/mL (≈ 10.9 µM)
- MIC Enterococcus faecium (GC 2243) ([1]; Enterococcus faecium (GC 2243)): 32 µg/mL (≈ 21.7 µM)
- MIC Enterococcus faecium (GC 4556) ([1]; Enterococcus faecium (GC 4556)): 32 µg/mL (≈ 21.7 µM)
- MIC Enterococcus faecium (GC 4557) ([1]; Enterococcus faecium (GC 4557)): 32 µg/mL (≈ 21.7 µM)
- MIC Enterococcus avium (GC 4558) [1, 13]: 16 µg/mL (≈ 10.9 µM)
- MIC Enterococcus faecalis (ATCC 29212) [1, 13]: 32 µg/mL (≈ 21.7 µM)
- MIC Enterococcus faecalis (GC 2242) [1, 13]: 16 µg/mL (≈ 10.9 µM)
- MIC Enterococcus faecalis (GC 2691) [1, 13]: 8 µg/mL (≈ 5.43 µM)
- MIC Enterococcus faecalis (GC 3059) [1, 13]: 32 µg/mL (≈ 21.7 µM)
- MIC Enterococcus faecalis (GC 4552) [1, 13]: 32 µg/mL (≈ 21.7 µM)
- MIC Enterococcus faecalis (GC 4553) [1, 13]: 16 µg/mL (≈ 10.9 µM)
- MIC Enterococcus faecalis (GC 4554) [1, 13]: 32 µg/mL (≈ 21.7 µM)
- MIC Enterococcus faecalis (GC 6189) [1, 13]: 16 µg/mL (≈ 10.9 µM)
- MIC Enterococcus faecium (GC 2243) [1, 13]: 32 µg/mL (≈ 21.7 µM)
- MIC Enterococcus faecium (GC 4556) [1, 13]: 32 µg/mL (≈ 21.7 µM)
- MIC Enterococcus faecium (GC 4557) [1, 13]: 32 µg/mL (≈ 21.7 µM)
- MIC Escherichia coli (ATCC 25922) ([2]; Escherichia coli (ATCC 25922)): >64 µg/mL
- MIC Escherichia coli (GC 4559) [2]: >64 µg/mL
- MIC Escherichia coli (GC 4560) [2]: 64 µg/mL (≈ 43.4 µM)
- MIC Staphylococcus aureus (ATCC 29213) [3]: 32 µg/mL (≈ 21.7 µM)
- MIC Staphylococcus aureus (GC 1131) [3]: 32 µg/mL (≈ 21.7 µM)
- MIC Staphylococcus aureus (GC 3051) [3]: 32 µg/mL (≈ 21.7 µM)
- MIC Staphylococcus aureus (GC 3053) [3]: 32 µg/mL (≈ 21.7 µM)
- MIC Staphylococcus aureus (GC 4541) [3]: 32 µg/mL (≈ 21.7 µM)
- MIC Staphylococcus aureus (GC 4542) [3]: 32 µg/mL (≈ 21.7 µM)
- MIC Staphylococcus aureus-SMITH (GC 4543) [3]: 32 µg/mL (≈ 21.7 µM)
- MIC Staphylococcus aureus (GC 4544) [3]: 32 µg/mL (≈ 21.7 µM)
- MIC Staphylococcus aureus (GC 4545) [3]: 32 µg/mL (≈ 21.7 µM)
- MIC Staphylococcus haemolyticus (GC 4546) [3]: 32 µg/mL (≈ 21.7 µM)
- MIC Coagulase Negative Staphylococcus (GC 4547) [3]: 32 µg/mL (≈ 21.7 µM)
- MIC Coagulase Negative Staphylococcus (GC 4548) [3]: 32 µg/mL (≈ 21.7 µM)
- MIC Coagulase Negative Staphylococcus (GC 4549) [3]: 8 µg/mL (≈ 5.43 µM)
- MIC Coagulase Negative Staphylococcus (GC 4551) [3]: 32 µg/mL (≈ 21.7 µM)
- MIC Coagulase Negative Staphylococcus (GC 6257) [3]: 32 µg/mL (≈ 21.7 µM)
- MIC Streptococcus agalactiae (GC 4564) [4, 14]: 0.25 µg/mL (≈ 0.17 µM)
- MIC Streptococcus pneumoniae (ATCC 6301) [4, 15]: 0.25 µg/mL (≈ 0.17 µM)
- MIC Streptococcus pneumoniae (GC 1894) [4, 16]: <0.06 µg/mL
- MIC Streptococcus pneumoniae (GC 4565) [4, 17]: <0.06 µg/mL
- MIC Streptococcus pyogenes (GC 4563) [4, 18]: 2 µg/mL (≈ 1.36 µM)
- MIC Streptococcus agalactiae (GC 4564) [4, 13]: 0.25 µg/mL (≈ 0.17 µM)
- MIC Streptococcus pneumoniae (ATCC 6301) [4, 13]: 0.25 µg/mL (≈ 0.17 µM)
- MIC Streptococcus pneumoniae (GC 1894) [4, 13]: <0.06 µg/mL
- MIC Streptococcus pneumoniae (GC 4565) [4, 13]: <0.06 µg/mL
- MIC Streptococcus pyogenes (GC 4563) [4, 13]: 2 µg/mL (≈ 1.36 µM)
